Laboratory results published in patent US9066965B1, “Purified limonin glucoside for prevention and treatment of chronic diseases” (The United States of America, as represented by the …, priority 2012, dated 2015).

Columns and labels:
Assay type in all cases: in vivo, human
[1] = Adverse effects and tolerability of the LG drink
Description: A total of 11 adverse events were reported by 6 subjects for the entire duration of the study (data not shown). Some of these events such as volunteer hurting their back or hand were definitely unrelated to the drinks, while others like a weird taste, dry throat seem related to the drinks, still others such as mild cold or frequent urinating, or rash on chest may or may not be related to the drinks. […] Since the placebo was also the carrier of LG, all adverse events may be due to the placebo drinks.

[2] = Serum/plasma concentrations of inflammatory markers
Method: (§1) Plasma concentrations of epidermal growth factor (EGF), interleukin-13 (IL-13), interleukin-1 receptor antagonist (IL-1Ra), and tumor necrosis factor α (TNF α) were analyzed in EDTA plasma on a Sector Imager 2400 instrument using a multiplex kits from MSD (Meso-Scale Discovery, Gaithersburg, Md.). Concentrations of C reactive protein (CRP), and complement 3 and 4 (C3, C4) were analyzed in serum by using an Integra 400 Plus Chemistry Analyzer, (Roche Diagnostics Corp., Indianapolis, Ind.). Serum amyloid A (SAA), soluble intracellular adhesion molecule-1 (sICAM-1), and soluble vascular cell adhesion molecule-1 (sVCAM-1) were tested in serum on a Sector Imager 2400 instrument using a multiplex kit from MSD (Meso-Scale Discovery, Gaithersburg, Md.).
(§2) Results are presented as means±SEM.

[3] = test system: prostate specific antigen (PSA); assay: Plasma free prostate specific antigen in MAP 1.6; conditions: for decrease of plasma free PSA concentration: vs placebo, n=5
Method: Plasma samples prepared from blood collected in EDTA-containing tubes were stored at −80° C. until tested. The samples were thawed at room temperature, vortexed, spun at 13,000×g for 5 minutes for clarification and 100 uL aliquots were removed for MAP analysis into a master microtiter plate. Using automated pipetting, an aliquot of each sample was introduced into one of the capture microsphere multiplexes of the Human MAP 1.6. This MAP comprised of 89 antigens that included markers for oxidative stress, inflammation, immune status, T2DM, CVD, blood clotting, cancer, liver and kidney functions. All plasma samples were tested in duplicate. The mixture of sample and capture microspheres were thoroughly mixed and incubated at room temperature for 1 hour. Multiplexed cocktails of biotinylated, reporter antibodies for each multiplex were then added robotically and after thorough mixing, were incubated for an additional hour at room temperature. Multiplexes were developed using an excess of streptavidin-phycoerythrin solution which was thoroughly mixed into each multiplex and incubated for 1 hour at room temperature. The volume of each multiplexed reaction was reduced by vacuum filtration and the volume increased by dilution into matrix buffer for analysis. Analysis was performed in a Luminex 100 instrument and the resulting data stream was interpreted using proprietary data analysis software developed at Rules-Based Medicine. For each multiplex, both calibrators and controls were included on each microtiter plate. 8-point calibrators were run in the first and last column of each plate and 3-level controls were included in duplicate. Testing results were determined first for the high, medium and low controls for each multiplex to ensure proper assay performance. Unknown values for each of the analytes localized in a specific multiplex were determined using 4 and 5 parameter, weighted and non-weighted curve fitting algorithms included in the data analysis package. The intra-sample coefficient of variance (CV) for all antigens with concentrations above the lowest detectable dose (LDD) was less than 20%, and was less than 10% for more than 50% of the antigens tested.
as §2

Complement 3 = assay: Plasma complement 3 in MAP 1.6
Method: Plasma samples prepared from blood collected in EDTA-containing tubes were stored at −80° C. until tested. The samples were thawed at room temperature, vortexed, spun at 13,000×g for 5 minutes for clarification and 100 uL aliquots were removed for MAP analysis into a master microtiter plate. Using automated pipetting, an aliquot of each sample was introduced into one of the capture microsphere multiplexes of the Human MAP 1.6. This MAP comprised of 89 antigens that included markers for oxidative stress, inflammation, immune status, T2DM, CVD, blood clotting, cancer, liver and kidney functions. All plasma samples were tested in duplicate. The mixture of sample and capture microspheres were thoroughly mixed and incubated at room temperature for 1 hour. Multiplexed cocktails of biotinylated, reporter antibodies for each multiplex were then added robotically and after thorough mixing, were incubated for an additional hour at room temperature. […] Testing results were determined first for the high, medium and low controls for each multiplex to ensure proper assay performance. Unknown values for each of the analytes localized in a specific multiplex were determined using 4 and 5 parameter, weighted and non-weighted curve fitting algorithms included in the data analysis package. […]

[4] = Comprehensive metabolic panel (CMP) on serum
Method: CMP performed on serum samples at the chemistry laboratory of University of California Medical Center by using the Beckman Coulter DxC800. GGT and CKMB were determined in the EDTA plasma. GGT activity was determined by using Integra 400 Chemistry Analyzer, Roche Diagnostics. CKMB concentration was determined by using the Multiplex kits from Mesoscale Discovery (Gaithersburg, Md. 20877).
SAS PROC MIXED was used to fit the cross-over model (Littell R C, Milliken G A, Stroup W W, Wolfinger R D, Schabenberger O. SAS System for Mixed Models. Cay, N.C.: SAS Institute Inc.; 2006). Transformations were used when appropriate to stabilize the variances among the diets and periods. The fixed effects were order, diet, the interaction and the covariate; and the random effect was subjects within order. The test for order is a test for carry-over effect. […] Comparisons were made between the values at the end of placebo and LG treatments and using the baseline data as a covariate. Results are presented as means±SEM. Differences were considered statistically significant for P value<0.05.

[5] = test system: complement fraction 3 (C3); assay: Serum C3 concentration (Integra 400 Plus)
Method: as §1, §2

[6] = EDTA plasma, End LG, 500 mg/d, 56 days, n = 10, mean ± SEM
[7] = serum, End LG, 500 mg/d, 56 days, n = 10, mean ± SEM

For `CC1(C)O[C@H]2CC(=O)OC[C@]23[C@H]2CC[C@@](C)([C@@H](O[C@@H]4O[C@H](CO)[C@@H](O)[C@H](O)[C@H]4O)c4ccoc4)[C@@]4(O[C@@H]4C(=O)O)[C@]2(C)C(=O)C[C@@H]13` [LG, limonin glucoside], which “effect on parameters of CBC, CMP and MAP 1.6” value ([1]; 500 mg/d, 56 days) is on record?
Its value is “did not adversely affect”.

What about the serious adverse effects ([1]; 500 mg/d, 56 days) of the same compound?
The serious adverse effects was “did not have any serious adverse effects”.

And the tolerability ([1]; 500 mg/d, 56 days)?
Its tolerability is “well tolerated”.

And the “adverse events reported while taking the drink” value ([1]; out of the 11 adverse events of the study, 7 on placebo drinks)?
The value was 4.

And the EGF [2, 6]?
The EGF was 106.02 ± 52.55 pg/mL.

What about the IL-1Ra [2, 6] of the same compound?
The IL-1Ra was 194.93 ± 27.03 pg/mL.

What about the IL-13 [2, 6] of the same compound?
Its IL-13 is 2.42 ± 0.27 pg/mL.

And the TNF a [2, 6]?
Its TNF a is 0.58 ± 0.20 pg/mL.

And the C4 [2, 7]?
Its C4 is 0.29 ± 0.02 mg/mL.

And the CRP [2, 7]?
Its CRP is 1.64 ± 0.25 µg/mL.

And the SAA [2, 7]?
The SAA was 4.06 ± 0.77 µg/mL.

What about the sICAM-1 [2, 7] of the same compound?
The sICAM-1 was 0.25 ± 0.02 µg/mL.

And the sVCAM-1 [2, 7]?
The sVCAM-1 was 0.41 ± 0.04 µg/mL.

And the “effect on plasma EGF, IL-13, IL-1Ra, TNF α and serum CRP, SAA, sICAM-1, sVCAM-1, C4” value ([2]; vs end of placebo treatment)?
The value was “not altered”.

What about the “subjects in whom free PSA concentration was reduced” value ([3]; 5 men, 5 women) of the same compound?
The value was “all men and 3 women”.

What about the “Prostate-Specific Antigen, Free” value ([3]; plasma, MAP 1.6, End LG, 500 mg/d, 56 days, n = 10, mean ± SEM) of the same compound?
Its value is 0.31 ± 0.11 ng/mL.

What about the “decrease of plasma free PSA concentration” value ([3]; men, p=0.059) of the same compound?
The value was 14.5%.

And the “decrease of plasma free PSA concentration” value ([3]; women, p=0.309)?
Its value is 22.9%.

And the “Complement 3” value (Complement 3; plasma, End LG, 500 mg/d, 56 days, n = 10, mean ± SEM)?
The value was 1.17 ± 0.05 mg/mL.

And the “decrease of plasma C3 concentration” value (Complement 3; vs end of placebo treatment, p=0.014)?
Its value is 6.4%.

What about the Albumin [4, 7] of the same compound?
The Albumin was 3.95 ± 0.05 g/dL.

And the Aspartate amino transferase [4, 7]?
Its Aspartate amino transferase is 23.3 ± 2.22 U/L.

And the CO2 [4, 7]?
Its CO2 is 29.10 ± 0.48 mEq/L.

What about the Calcium [4, 7] of the same compound?
The Calcium was 9.42 ± 0.06 mg/dL.

And the Chloride [4, 7]?
The Chloride was 104.80 ± 0.81 mEq/L.

What about the Creatinine [4, 7] of the same compound?
Its Creatinine is 0.84 ± 0.03 mg/dL.

And the Glucose [4, 7]?
Its Glucose is 89.7 ± 2.58 mg/dL.

And the Lactate dehydrogenase [4, 7]?
The Lactate dehydrogenase was 126.80 ± 8.90 U/L.

And the Potassium [4, 7]?
Its Potassium is 4.61 ± 0.12 mEq/L.

What about the Protein [4, 7] of the same compound?
The Protein was 6.59 ± 0.08 g/dL.

What about the Sodium [4, 7] of the same compound?
Its Sodium is 140.80 ± 0.68 mEq/L.

What about the Total bilirubin [4, 7] of the same compound?
Its Total bilirubin is 0.81 ± 0.08 mg/dL.

And the Urea [4, 7]?
Its Urea is 11.70 ± 0.92 mg/dL.

And the “effect on circulating concentration of AST” value ([4]; vs end of placebo treatment)?
Its value is “did not significantly decrease”.

And the “effect on serum albumin, total protein, glucose, aspartate amino transferase, lactate dehydrogenase, calcium, potassium, sodium, chloride, CO2, creatinine, CKMB, total bilirubin, urea” value ([4]; vs end of placebo treatment)?
Its value is “did not alter”.

What about the C3 [5, 7] of the same compound?
Its C3 is 1.18 ± 0.05 mg/mL.

What about the “decrease of serum C3 concentration” value ([5]; vs end of placebo treatment, Integra 400 Plus, p=0.055) of the same compound?
Its value is 4.8%.
